Measurements as given in PubChem BioAssay (NCI).
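Step 1: Grow cells in 96-well plates. Step 2: Expose to compound for 48 hours at 5 concentrations. Step 3: Interpolate endpoints linearly; if unreached, use highest concentration. TGI is the concentration that stops growth completely.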

Assays:
Test in all cases: growth of human tumour cells (NCI), 48 h
MDA-MB-231 breast = system: MDA-MB-231 breast
M14 melanoma = system: M14 melanoma
OVCAR-4 ovarian = system: OVCAR-4 ovarian
SF-295 CNS = system: SF-295 CNS
MOLT-4 leukemia = system: MOLT-4 leukemia
SK-MEL-2 melanoma = system: SK-MEL-2 melanoma
K-562 leukemia = system: K-562 leukemia
SW-620 colon = system: SW-620 colon
HOP-62 NSCLC = system: HOP-62 NSCLC
CCRF-CEM leukemia = system: CCRF-CEM leukemia
BT-549 breast = system: BT-549 breast
UACC-62 melanoma = system: UACC-62 melanoma
SN12C renal = system: SN12C renal
A549 NSCLC = system: A549 NSCLC
SNB-19 CNS = system: SNB-19 CNS
MDA-N = system: MDA-N
DU-145 prostate = system: DU-145 prostate
UO-31 renal = system: UO-31 renal
HCT-116 colon = system: HCT-116 colon
NCI-H23 lung = system: NCI-H23 lung
LOX IMVI melanoma = system: LOX IMVI melanoma
SK-MEL-5 melanoma = system: SK-MEL-5 melanoma
NCI-H226 lung = system: NCI-H226 lung
NCI/ADR-RES ovarian = system: NCI/ADR-RES ovarian
IGROV1 ovarian = system: IGROV1 ovarian
NCI-H522 lung = system: NCI-H522 lung
TK-10 renal = system: TK-10 renal
OVCAR-5 ovarian = system: OVCAR-5 ovarian
HS 578T breast = system: HS 578T breast
ACHN renal = system: ACHN renal
HL-60(TB) leukemia = system: HL-60(TB) leukemia
A498 renal = system: A498 renal
SF-539 CNS = system: SF-539 CNS
RXF 393 renal = system: RXF 393 renal
OVCAR-8 ovarian = system: OVCAR-8 ovarian
MCF7 breast = system: MCF7 breast
CAKI-1 renal = system: CAKI-1 renal
HCT-15 colon = system: HCT-15 colon
UACC-257 melanoma = system: UACC-257 melanoma
HCC-2998 colon = system: HCC-2998 colon
HT29 colon = system: HT29 colon
SR leukemia = system: SR leukemia
SNB-75 CNS = system: SNB-75 CNS
SF-268 CNS = system: SF-268 CNS
PC-3 prostate = system: PC-3 prostate
HOP-92 NSCLC = system: HOP-92 NSCLC
RPMI-8226 leukemia = system: RPMI-8226 leukemia
OVCAR-3 ovarian = system: OVCAR-3 ovarian
MDA-MB-435 = system: MDA-MB-435
SK-OV-3 ovarian = system: SK-OV-3 ovarian
SK-MEL-28 melanoma = system: SK-MEL-28 melanoma
T-47D breast = system: T-47D breast
U251 CNS = system: U251 CNS
NCI-H460 lung = system: NCI-H460 lung
EKVX NSCLC = system: EKVX NSCLC
MALME-3M melanoma = system: MALME-3M melanoma
KM12 colon = system: KM12 colon
COLO 205 colon = system: COLO 205 colon
786-0 renal = system: 786-0 renal
DMS 114 small cell lung = system: DMS 114 small cell lung
HOP-18 NSCLC = system: HOP-18 NSCLC
SNB-78 CNS = system: SNB-78 CNS
DLD-1 colon = system: DLD-1 colon
M19-MEL melanoma = system: M19-MEL melanoma
KM20L2 colon = system: KM20L2 colon
DMS 273 small cell lung = system: DMS 273 small cell lung
LXFL 529 NSCLC = system: LXFL 529 NSCLC

Molecule `OC(CC1CCCCN1)c1ccc2c(c1)oc1ccccc12` (stereo unspecified) has a TGI (MDA-MB-231 breast) greater than 100 µM, a TGI (M14 melanoma) of 45 µM and a TGI (OVCAR-4 ovarian) greater than 100 µM. The TGI (SF-295 CNS) was greater than 100 µM, the TGI (MOLT-4 leukemia) was 67.1 µM and the TGI (SK-MEL-2 melanoma) was greater than 100 µM. It also gave a TGI (K-562 leukemia) greater than 100 µM, a TGI (SW-620 colon) greater than 100 µM and a TGI (HOP-62 NSCLC) greater than 100 µM. It also gave a TGI (CCRF-CEM leukemia) greater than 100 µM, a TGI (BT-549 breast) greater than 100 µM and a TGI (UACC-62 melanoma) of 44.7 µM. For the same molecule, the TGI (SN12C renal) was greater than 100 µM, the TGI (A549 NSCLC) was greater than 100 µM and the TGI (SNB-19 CNS) was greater than 100 µM. It also gave a TGI (MDA-N) greater than 100 µM, a TGI (DU-145 prostate) greater than 100 µM and a TGI (UO-31 renal) greater than 100 µM. For the same molecule, the TGI (HCT-116 colon) was greater than 100 µM, the TGI (NCI-H23 lung) was greater than 100 µM and the TGI (LOX IMVI melanoma) was greater than 100 µM. For the same molecule, the TGI (SK-MEL-5 melanoma) was 34.1 µM, the TGI (NCI-H226 lung) was greater than 100 µM and the TGI (NCI/ADR-RES ovarian) was greater than 100 µM. It also gave a TGI (IGROV1 ovarian) greater than 100 µM, a TGI (NCI-H522 lung) greater than 100 µM and a TGI (TK-10 renal) greater than 100 µM. For the same molecule, the TGI (OVCAR-5 ovarian) was greater than 100 µM, the TGI (HS 578T breast) was greater than 100 µM and the TGI (ACHN renal) was greater than 100 µM. The TGI (HL-60(TB) leukemia) was greater than 100 µM, the TGI (A498 renal) was 64.7 µM and the TGI (SF-539 CNS) was greater than 100 µM. It also gave a TGI (RXF 393 renal) greater than 100 µM, a TGI (OVCAR-8 ovarian) greater than 100 µM and a TGI (MCF7 breast) greater than 100 µM. It also gave a TGI (CAKI-1 renal) greater than 100 µM, a TGI (HCT-15 colon) greater than 100 µM and a TGI (UACC-257 melanoma) greater than 100 µM. For the same molecule, the TGI (HCC-2998 colon) was greater than 100 µM, the TGI (HT29 colon) was greater than 100 µM and the TGI (SR leukemia) was greater than 100 µM. For the same molecule, the TGI (SNB-75 CNS) was greater than 100 µM, the TGI (SF-268 CNS) was greater than 100 µM and the TGI (PC-3 prostate) was greater than 100 µM. For the same molecule, the TGI (HOP-92 NSCLC) was greater than 100 µM, the TGI (RPMI-8226 leukemia) was greater than 100 µM and the TGI (OVCAR-3 ovarian) was greater than 100 µM. It also gave a TGI (MDA-MB-435) greater than 100 µM, a TGI (SK-OV-3 ovarian) greater than 100 µM and a TGI (SK-MEL-28 melanoma) greater than 100 µM. For the same molecule, the TGI (T-47D breast) was greater than 100 µM, the TGI (U251 CNS) was greater than 100 µM and the TGI (NCI-H460 lung) was greater than 100 µM. The TGI (EKVX NSCLC) was greater than 100 µM, the TGI (MALME-3M melanoma) was greater than 100 µM and the TGI (KM12 colon) was greater than 100 µM. The TGI (COLO 205 colon) was 45.2 µM and the TGI (786-0 renal) was greater than 100 µM.

`CC1(c2cccc(C3CC4(CCC3=O)OCCCCO4)c2)OCCO1` (stereo unspecified) gave a TGI (M14 melanoma) greater than 100 µM, a TGI (DMS 114 small cell lung) greater than 100 µM and a TGI (OVCAR-4 ovarian) greater than 100 µM. For the same molecule, the TGI (SF-295 CNS) was greater than 100 µM, the TGI (MOLT-4 leukemia) was greater than 100 µM and the TGI (SK-MEL-2 melanoma) was greater than 100 µM. For the same molecule, the TGI (K-562 leukemia) was greater than 100 µM, the TGI (SW-620 colon) was greater than 100 µM and the TGI (HOP-62 NSCLC) was greater than 100 µM. For the same molecule, the TGI (CCRF-CEM leukemia) was greater than 100 µM, the TGI (UACC-62 melanoma) was greater than 100 µM and the TGI (SN12C renal) was greater than 100 µM. The TGI (A549 NSCLC) was greater than 100 µM, the TGI (SNB-19 CNS) was greater than 100 µM and the TGI (UO-31 renal) was greater than 100 µM. For the same molecule, the TGI (HCT-116 colon) was greater than 100 µM, the TGI (NCI-H23 lung) was greater than 100 µM and the TGI (LOX IMVI melanoma) was greater than 100 µM. It also gave a TGI (SK-MEL-5 melanoma) greater than 100 µM, a TGI (HOP-18 NSCLC) greater than 100 µM and a TGI (SNB-78 CNS) greater than 100 µM. The TGI (NCI-H226 lung) was greater than 100 µM, the TGI (IGROV1 ovarian) was greater than 100 µM and the TGI (NCI-H522 lung) was greater than 100 µM. The TGI (DLD-1 colon) was greater than 100 µM, the TGI (TK-10 renal) was greater than 100 µM and the TGI (OVCAR-5 ovarian) was greater than 100 µM. For the same molecule, the TGI (ACHN renal) was greater than 100 µM, the TGI (M19-MEL melanoma) was greater than 100 µM and the TGI (HL-60(TB) leukemia) was greater than 100 µM. It also gave a TGI (A498 renal) greater than 100 µM, a TGI (SF-539 CNS) greater than 100 µM and a TGI (OVCAR-8 ovarian) greater than 100 µM. The TGI (CAKI-1 renal) was greater than 100 µM, the TGI (KM20L2 colon) was greater than 100 µM and the TGI (HCT-15 colon) was greater than 100 µM. For the same molecule, the TGI (UACC-257 melanoma) was greater than 100 µM, the TGI (HCC-2998 colon) was greater than 100 µM and the TGI (HT29 colon) was greater than 100 µM. For the same molecule, the TGI (SNB-75 CNS) was greater than 100 µM, the TGI (SF-268 CNS) was greater than 100 µM and the TGI (DMS 273 small cell lung) was greater than 100 µM. It also gave a TGI (RPMI-8226 leukemia) greater than 100 µM, a TGI (OVCAR-3 ovarian) greater than 100 µM and a TGI (SK-OV-3 ovarian) greater than 100 µM. The TGI (SK-MEL-28 melanoma) was greater than 100 µM, the TGI (U251 CNS) was greater than 100 µM and the TGI (NCI-H460 lung) was greater than 100 µM. It also gave a TGI (LXFL 529 NSCLC) greater than 100 µM, a TGI (MALME-3M melanoma) greater than 100 µM and a TGI (KM12 colon) greater than 100 µM. The TGI (COLO 205 colon) was greater than 100 µM and the TGI (786-0 renal) was greater than 100 µM.

`CS(=O)(=O)Nc1ccc2ccccc2c1-c1c(NS(C)(=O)=O)ccc2ccccc12` gave a TGI (MDA-MB-231 breast) greater than 25 µM, a TGI (M14 melanoma) greater than 25 µM and a TGI (OVCAR-4 ovarian) greater than 25 µM. For the same molecule, the TGI (SF-295 CNS) was greater than 25 µM, the TGI (MOLT-4 leukemia) was greater than 25 µM and the TGI (SK-MEL-2 melanoma) was greater than 25 µM. The TGI (K-562 leukemia) was greater than 25 µM, the TGI (SW-620 colon) was greater than 25 µM and the TGI (HOP-62 NSCLC) was greater than 25 µM. The TGI (CCRF-CEM leukemia) was greater than 25 µM, the TGI (BT-549 breast) was greater than 25 µM and the TGI (UACC-62 melanoma) was greater than 25 µM. It also gave a TGI (SN12C renal) greater than 25 µM, a TGI (A549 NSCLC) greater than 25 µM and a TGI (SNB-19 CNS) greater than 25 µM. The TGI (MDA-N) was greater than 25 µM, the TGI (DU-145 prostate) was greater than 25 µM and the TGI (UO-31 renal) was greater than 25 µM. For the same molecule, the TGI (HCT-116 colon) was greater than 25 µM, the TGI (NCI-H23 lung) was greater than 25 µM and the TGI (LOX IMVI melanoma) was greater than 25 µM. For the same molecule, the TGI (SK-MEL-5 melanoma) was greater than 25 µM, the TGI (NCI-H226 lung) was greater than 25 µM and the TGI (NCI/ADR-RES ovarian) was greater than 25 µM. For the same molecule, the TGI (IGROV1 ovarian) was greater than 25 µM, the TGI (NCI-H522 lung) was greater than 25 µM and the TGI (TK-10 renal) was greater than 25 µM. It also gave a TGI (OVCAR-5 ovarian) greater than 25 µM, a TGI (HS 578T breast) greater than 25 µM and a TGI (ACHN renal) greater than 25 µM. It also gave a TGI (HL-60(TB) leukemia) greater than 25 µM, a TGI (A498 renal) greater than 25 µM and a TGI (SF-539 CNS) greater than 25 µM. For the same molecule, the TGI (RXF 393 renal) was greater than 25 µM, the TGI (OVCAR-8 ovarian) was greater than 25 µM and the TGI (MCF7 breast) was greater than 25 µM. For the same molecule, the TGI (CAKI-1 renal) was greater than 25 µM, the TGI (HCT-15 colon) was greater than 25 µM and the TGI (UACC-257 melanoma) was greater than 25 µM. It also gave a TGI (HCC-2998 colon) greater than 25 µM, a TGI (HT29 colon) greater than 25 µM and a TGI (SR leukemia) greater than 25 µM. It also gave a TGI (SNB-75 CNS) greater than 25 µM, a TGI (SF-268 CNS) greater than 25 µM and a TGI (PC-3 prostate) greater than 25 µM. It also gave a TGI (HOP-92 NSCLC) greater than 25 µM, a TGI (RPMI-8226 leukemia) greater than 25 µM and a TGI (OVCAR-3 ovarian) greater than 25 µM. For the same molecule, the TGI (MDA-MB-435) was greater than 25 µM, the TGI (SK-OV-3 ovarian) was greater than 25 µM and the TGI (SK-MEL-28 melanoma) was greater than 25 µM. The TGI (T-47D breast) was greater than 25 µM, the TGI (U251 CNS) was greater than 25 µM and the TGI (NCI-H460 lung) was greater than 25 µM. It also gave a TGI (EKVX NSCLC) greater than 25 µM, a TGI (MALME-3M melanoma) greater than 25 µM and a TGI (KM12 colon) greater than 25 µM. For the same molecule, the TGI (COLO 205 colon) was greater than 25 µM and the TGI (786-0 renal) was greater than 25 µM.
